Measured values from patent US7700633B2, “Organic compounds” (Novartis AG, priority 2005, dated 2010).

Assays:
human PTP-1B = molecular target: T1, human PTP-1B (Homo sapiens, UniProt P18031); experiment: PTP-1B inhibitory activity in vitro (IC50); type: biochemical
T1 construct: recombinant human PTP-1B[1-298] or PTP-1B[1-322]
T1 sequence (P18031 1-298 limits assumed): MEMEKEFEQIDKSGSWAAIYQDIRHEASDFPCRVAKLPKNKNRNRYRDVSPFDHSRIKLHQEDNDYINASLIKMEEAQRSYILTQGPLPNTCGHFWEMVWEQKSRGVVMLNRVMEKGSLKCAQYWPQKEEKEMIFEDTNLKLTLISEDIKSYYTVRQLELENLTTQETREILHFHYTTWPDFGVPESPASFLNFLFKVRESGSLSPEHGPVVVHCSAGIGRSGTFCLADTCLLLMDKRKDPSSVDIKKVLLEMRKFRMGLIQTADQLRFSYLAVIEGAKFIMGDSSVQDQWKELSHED
Experimental: Assessment of human PTP-1B (hPTP-1B) activity in the presence of various agents is determined by measuring the amount of inorganic phosphate released from a phosphopeptide substrate using a 96-well microtiter plate format. The assay (100 μL) is performed in an assay buffer comprised of 50 mM TRIS (pH 7.5), 50 mM NaCl, 3 mM DTT at ambient temperature. The assay is typically performed in the presence of 0.4% dimethyl sulfoxide (DMSO). However, concentrations as high as 10% are used with certain poorly soluble compounds. […] Inorganic phosphate, a product of the enzyme reaction, is quantitiated after 15 min as the green color resulting from complexing with the Malichite reagent and is determined as an A620 using a Molecular Devices (Sunnyvale, Calif.) SpectraMAX Plus spectrophotometer. […] Activity is defined as the net change in absorbance resulting from the activity of the uninhibited hPTP-1B[1-411] minus that of a tube with acid-inactivated hPTP-1B[1-411]. […]
Alternatively, the assessment of human PTP-1B activity in the presence of various agents may be determined by measuring the hydrolysis products of known competing substrates. For example, cleavage of substrate para-nitrophenylphosphate (pNPP) results in the release of the yellow-colored para-nitrophenol (pNP) which can be monitored in real time using a spectrophotometer. […]

| melting point | IC50 (human PTP-1B) | Structure (SMILES) |
| --- | --- | --- |
| 226 to 228 °C |  | COc1cc2cc(N3CC(=O)NS3(=O)=O)c(O)cc2oc1=O [Example 70, 5-(7-Hydroxy-3-methoxy-2-oxo-2H-chromen-6-yl)-1,1-dioxo-1,2,5-thiadiazolidin-3-one] |
|  | 85 nM | O=C1CN(c2cc3cc(C4CCCC4)ccc3cc2O)S(=O)(=O)N1 [Example No. 22, 5-(7-Cyclopentyl-3-hydroxynaphthalen-2-yl)-1,1-dioxo-1,2,5-thiadiazolidin-3-one] |
|  | 113 nM | O=C1CN(c2cc3cc(C4CCCCC4)ccc3cc2O)S(=O)(=O)N1 [Example No. 23, 5-(7-Cyclohexyl-3-hydroxynaphthalen-2-yl)-1,1-dioxo-1,2,5-thiadiazolidin-3-one] |
